# Results reported in PubChem BioAssay AID270 (DTP/NCI, 2004).
# Values joined by “and” are separate entries in the source; they are usually repeats but may differ in a detail not shown here. Equal entries are not always repeated. Inconclusive results are not listed.
# System: BDF1 mice, s.c. Lewis lung carcinoma, T/C %
# Test: NCI In Vivo Anticancer Drug Screen. Data for tumor model Lewis Lung Carcinoma (subcutaneous) in B6D2F1 (BDF1) mice
# Summary of the method: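 Readout: survival or tumor size, expressed as treated (T) over vehicle control (C). Transplantable tumor implanted in mice; compound given to the treated group.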
smiles,measurement,setting,value
Cc1c(N)nc([C@H](CC(N)=O)NC[C@H](N)C(N)=O)nc1C(=O)N[C@H](C(=O)N[C@H](C)[C@@H](O)[C@H](C)C(=O)N[C@H](C(=O)NCCc1nc(-c2nc(C(=O)NCCC[S+](C)C)cs2)cs1)[C@@H](C)O)C(OC1OC(CO)C(O)C(O)C1OC1OC(CO)C(O)C(OC(N)=O)C1O)c1cnc[nH]1 (some centres not stated),T/C,"endpoint: mean survival time, dose: 4.0 mg/kg/injection, schedule: Q01DX009 (ip), vehicle: saline, higher = longer survival",111 % of control
same,T/C,"endpoint: mean survival time, dose: 8.0 mg/kg/injection, schedule: Q01DX009 (ip), vehicle: saline, higher = longer survival",102 % of control
same,T/C,"endpoint: mean survival time, dose: 12.0 mg/kg/injection, schedule: Q01DX009 (ip), vehicle: saline, higher = longer survival",107 % of control
same,T/C,"endpoint: median survival time, dose: 1.0 mg/kg/injection, schedule: Q01DX009 (ip), vehicle: water, higher = longer survival",90 % of control
same,T/C,"endpoint: median survival time, dose: 1.7 mg/kg/injection, schedule: Q01DX009 (ip), vehicle: water, higher = longer survival",94 % of control
same,T/C,"endpoint: median survival time, dose: 2.0 mg/kg/injection, schedule: Q01DX009 (ip), vehicle: saline, higher = longer survival",107 % of control
same,T/C,"endpoint: median survival time, dose: 2.0 mg/kg/injection, schedule: Q01DX009 (ip), vehicle: water, higher = longer survival",112 % of control
same,T/C,"endpoint: median survival time, dose: 2.9 mg/kg/injection, schedule: Q01DX009 (ip), vehicle: water, higher = longer survival",94 % of control
same,T/C,"endpoint: median survival time, dose: 3.12 mg/kg/injection, schedule: Q04DX003 (sc), vehicle: saline, higher = longer survival",90 % of control and 92 % of control
same,T/C,"endpoint: median survival time, dose: 4.0 mg/kg/injection, schedule: Q01DX009 (ip), vehicle: water, higher = longer survival",94 % of control and 118 % of control
same,T/C,"endpoint: median survival time, dose: 4.0 mg/kg/injection, schedule: Q04DX003 (ip), vehicle: saline, higher = longer survival",96 % of control and 110 % of control
same,T/C,"endpoint: median survival time, dose: 4.8 mg/kg/injection, schedule: Q01DX009 (ip), vehicle: water, higher = longer survival",118 % of control
same,T/C,"endpoint: median survival time, dose: 6.25 mg/kg/injection, schedule: Q04DX003 (sc), vehicle: saline, higher = longer survival",96 % of control
same,T/C,"endpoint: median survival time, dose: 8.0 mg/kg/injection, schedule: Q01DX009 (ip), vehicle: water, higher = longer survival",102 % of control and 112 % of control
same,T/C,"endpoint: median survival time, dose: 8.0 mg/kg/injection, schedule: Q04DX003 (ip), vehicle: saline, higher = longer survival",96 % of control and 114 % of control
same,T/C,"endpoint: median survival time, dose: 12.0 mg/kg/injection, schedule: Q01DX009 (ip), vehicle: saline, higher = longer survival",100 % of control
same,T/C,"endpoint: median survival time, dose: 12.5 mg/kg/injection, schedule: Q04DX003 (sc), vehicle: saline, higher = longer survival",102 % of control and 108 % of control
same,T/C,"endpoint: median survival time, dose: 16.0 mg/kg/injection, schedule: Q04DX003 (ip), vehicle: saline, higher = longer survival",84 % of control and 112 % of control
same,T/C,"endpoint: median survival time, dose: 22.2 mg/kg/injection, schedule: Q01DX009 (ip), vehicle: water, higher = longer survival",82 % of control
same,T/C,"endpoint: median survival time, dose: 25.0 mg/kg/injection, schedule: Q04DX003 (sc), vehicle: saline, higher = longer survival",98 % of control
same,T/C,"endpoint: median survival time, dose: 32.0 mg/kg/injection, schedule: Q04DX003 (ip), vehicle: saline, higher = longer survival",50 % of control and 108 % of control
same,T/C,"endpoint: median survival time, dose: 50.0 mg/kg/injection, schedule: Q04DX003 (sc), vehicle: saline, higher = longer survival",117 % of control and 118 % of control
same,T/C,"endpoint: median survival time, dose: 64.0 mg/kg/injection, schedule: Q04DX003 (ip), vehicle: saline, higher = longer survival",37 % of control and 97 % of control
same,T/C,"endpoint: median survival time, dose: 100.0 mg/kg/injection, schedule: Q04DX003 (sc), vehicle: saline, higher = longer survival",116 % of control and 124 % of control
same,T/C,"endpoint: median tumor weight (est.), dose: 2.0 mg/kg/injection, schedule: Q01DX009 (ip), vehicle: saline, higher = larger tumour",71 % of control
same,T/C,"endpoint: median tumor weight (est.), dose: 2.0 mg/kg/injection, schedule: Q01DX009 (ip), vehicle: water, higher = larger tumour",34 % of control
same,T/C,"endpoint: median tumor weight (est.), dose: 4.0 mg/kg/injection, schedule: Q01DX009 (ip), vehicle: saline, higher = larger tumour",77 % of control
same,T/C,"endpoint: median tumor weight (est.), dose: 4.0 mg/kg/injection, schedule: Q01DX009 (ip), vehicle: water, higher = larger tumour",24 % of control
same,T/C,"endpoint: median tumor weight (est.), dose: 8.0 mg/kg/injection, schedule: Q01DX009 (ip), vehicle: saline, higher = larger tumour",34 % of control
same,T/C,"endpoint: median tumor weight (est.), dose: 8.0 mg/kg/injection, schedule: Q01DX009 (ip), vehicle: water, higher = larger tumour",8 % of control
same,T/C,"endpoint: median tumor weight (est.), dose: 16.0 mg/kg/injection, schedule: Q01DX009 (ip), vehicle: saline, higher = larger tumour",26 % of control
CCOC(=O)C(C)(C)Br,T/C,"endpoint: mean tumor weight, dose: 75.0 mg/kg/injection, schedule: Q01DX011 (ip), vehicle: other, higher = larger tumour",90 % of control
same,T/C,"endpoint: mean tumor weight, dose: 150.0 mg/kg/injection, schedule: Q01DX011 (ip), vehicle: other, higher = larger tumour",114 % of control
same,T/C,"endpoint: mean tumor weight, dose: 300.0 mg/kg/injection, schedule: Q01DX011 (ip), vehicle: other, higher = larger tumour",98 % of control
same,T/C,"endpoint: mean tumor weight, dose: 500.0 mg/kg/injection, schedule: Q01DX011 (ip), vehicle: other, higher = larger tumour",68 % of control
same,T/C,"endpoint: mean tumor weight, dose: 600.0 mg/kg/injection, schedule: Q01DX011 (ip), vehicle: other, higher = larger tumour",102 % of control
same,T/C,"endpoint: mean tumor weight, dose: 750.0 mg/kg/injection, schedule: Q01DX011 (ip), vehicle: other, higher = larger tumour",37 % of control
